Test systems include CCRF-CEM leukemia; OVCAR-8 ovarian; RPMI-8226 leukemia; MALME-3M melanoma; HT29 colon; HOP-92 NSCLC; U251 CNS; UACC-62 melanoma.
Holding throughout (experiment): DTP human tumour cell line panel, 48 h

Each structure is given as a SMILES string. “And” between values parts separate entries of the source, which are not always exact repeats. Identical values can stand only once.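 Following 48 hours of exposure in 96-well plates, responses at five concentrations were used to interpolate endpoints linearly. Here, GI50 denotes the concentration required for 50% inhibition of growth. TGI marks complete inhibition of growth.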 Some results are limits rather than exact numbers.

For `Nc1cccc2c1CN(C1CCC(=O)NC1=O)C2=O` (centres undefined), the GI50 was above 100 µM with CCRF-CEM leukemia; above 100 µM in the assay on OVCAR-8 ovarian; above 100 µM in the assay with RPMI-8226 leukemia; above 100 µM in the assay on MALME-3M melanoma; above 100 µM in the assay on HT29 colon; above 34.2 µM with HOP-92 NSCLC. In addition, the GI50 with U251 CNS and in the assay with UACC-62 melanoma was above 100 µM each time. In addition, the TGI with CCRF-CEM leukemia, in the assay on OVCAR-8 ovarian, in the assay with RPMI-8226 leukemia, in the assay on MALME-3M melanoma, in the assay on HT29 colon and in the assay on HOP-92 NSCLC was above 100 µM in each case. Further, the TGI in the assay with U251 CNS and in the assay on UACC-62 melanoma was above 100 µM each time.
`N#Cc1ccc(N2Cc3cc(Cl)ccc3OC3=C2C(=O)N(Cc2ccc(F)cc2)C3=O)cc1`: the GI50 in the assay on CCRF-CEM leukemia was 0.229 µM; with OVCAR-8 ovarian, 1.43 µM; in the assay on RPMI-8226 leukemia, 0.252 µM; in the assay on MALME-3M melanoma it was 0.559 µM; in the assay with HT29 colon, 0.587 µM; in the assay with HOP-92 NSCLC, 0.58 µM. The GI50 was 0.672 µM in the assay with U251 CNS and 0.537 µM in the assay with UACC-62 melanoma. The TGI amounted to 1.09 µM in the assay with CCRF-CEM leukemia; 3.12 µM in the assay on OVCAR-8 ovarian; 0.814 µM in the assay with RPMI-8226 leukemia; 1.13 µM in the assay on MALME-3M melanoma; 1.35 µM in the assay on HT29 colon; 1.32 µM in the assay with HOP-92 NSCLC. The total growth inhibition concentration (TGI) amounted to 1.68 µM with U251 CNS and 1.13 µM with UACC-62 melanoma.
Take `CCN1CCN(CC(=O)Nc2nc3ccc(NCc4ccc(C)cc4)cc3s2)CC1`: the GI50 with CCRF-CEM leukemia is 1.49 µM; in the assay with OVCAR-8 ovarian it was 6.66 µM; in the assay with RPMI-8226 leukemia, 1.09 µM; in the assay with MALME-3M melanoma, 1.04 µM; in the assay on HT29 colon, 1.27 µM; in the assay on HOP-92 NSCLC, 0.504 µM. For the same molecule, the figures for the GI50 with U251 CNS and with UACC-62 melanoma were 2.77 µM and 1.01 µM, respectively. In addition, the TGI in the assay on CCRF-CEM leukemia was 6.3 µM; in the assay with OVCAR-8 ovarian, 16.5 µM; in the assay with RPMI-8226 leukemia, 3.34 µM; in the assay on MALME-3M melanoma, 2.43 µM; in the assay with HT29 colon, 3.48 µM; with HOP-92 NSCLC, 2.34 µM. For the same molecule, the concentration for total growth inhibition (TGI) stood at 9.14 µM in the assay on U251 CNS and 2.06 µM in the assay with UACC-62 melanoma.
With `CCCCCCCCn1ccc2cc(NC(=O)Cn3cc(CN4CCC(C)CC4)nn3)ccc21`, the GI50 in the assay with CCRF-CEM leukemia was 2.5 µM; in the assay on OVCAR-8 ovarian, 1.86 µM; with RPMI-8226 leukemia, 2.06 µM; with MALME-3M melanoma it was 1.66 µM; with HT29 colon, 1.73 µM; in the assay with HOP-92 NSCLC, 1.16 µM. The GI50 in the assay on U251 CNS is 1.7 µM; in the assay with UACC-62 melanoma it was 1.88 µM. Also, the TGI in the assay with CCRF-CEM leukemia was 9.71 µM; in the assay with OVCAR-8 ovarian, 3.81 µM; with RPMI-8226 leukemia it was 4.82 µM; in the assay with MALME-3M melanoma, 3.12 µM; in the assay on HT29 colon it was 3.32 µM; with HOP-92 NSCLC, 2.57 µM. In addition, the concentration for total growth inhibition (TGI) in the assay on U251 CNS amounted to 3.15 µM; in the assay on UACC-62 melanoma, 3.37 µM.
Turning to `O=Cc1c[nH]c2ccc(-c3csc4ccccc34)cc12`, the GI50 was 2.64 µM with CCRF-CEM leukemia; 3.47 µM with OVCAR-8 ovarian; 1.54 µM with RPMI-8226 leukemia; 4.39 µM with MALME-3M melanoma; 3.34 µM with HT29 colon; 7.06 µM in the assay with HOP-92 NSCLC. Besides, the GI50 in the assay with U251 CNS is 3.64 µM; in the assay on UACC-62 melanoma, 3.02 µM. In addition, the concentration for total growth inhibition (TGI) is 10.6 µM in the assay with CCRF-CEM leukemia; above 100 µM in the assay with OVCAR-8 ovarian; 7.49 µM in the assay with RPMI-8226 leukemia; 37.5 µM in the assay with MALME-3M melanoma; above 100 µM with HT29 colon; 84.7 µM in the assay with HOP-92 NSCLC. For the same molecule, the figures for the TGI with U251 CNS and with UACC-62 melanoma were 21 µM and 34.6 µM, respectively.
Consider `CC(=O)Nc1c(I)c(C(=O)O)c(I)c(N(C)C(C)=O)c1I`, for which the GI50 with CCRF-CEM leukemia, with OVCAR-8 ovarian, in the assay on RPMI-8226 leukemia, with MALME-3M melanoma, in the assay with HT29 colon and in the assay with HOP-92 NSCLC was above 100 µM in each case. In addition, the GI50 in the assay with U251 CNS and in the assay with UACC-62 melanoma was above 100 µM throughout. Also, the TGI in the assay with CCRF-CEM leukemia, with OVCAR-8 ovarian, with RPMI-8226 leukemia, in the assay with MALME-3M melanoma, with HT29 colon and in the assay on HOP-92 NSCLC was above 100 µM in each case. The total growth inhibition concentration (TGI) with U251 CNS and in the assay with UACC-62 melanoma was above 100 µM each time.
Regarding `O=S1CCN(Cc2ccc(-c3ccc4ncnc(Nc5ccc(OCc6ccccc6)c(F)c5)c4c3)o2)CC1`, the GI50 with CCRF-CEM leukemia is 8.82 µM; with OVCAR-8 ovarian it was 11.4 µM; with RPMI-8226 leukemia, 8.71 µM; in the assay with MALME-3M melanoma, 7.08 µM; in the assay with HT29 colon, 5.21 µM; with HOP-92 NSCLC, 3.76 µM. Moreover, the values for the GI50 with U251 CNS and in the assay with UACC-62 melanoma were 13.9 µM and 5.1 µM, respectively. Further, the TGI in the assay on CCRF-CEM leukemia was above 25 µM; in the assay on OVCAR-8 ovarian, above 25 µM; with RPMI-8226 leukemia, above 25 µM; in the assay with MALME-3M melanoma it was above 22.6 µM; with HT29 colon, above 25 µM; in the assay with HOP-92 NSCLC, 17.7 µM. Moreover, the total growth inhibition concentration (TGI) in the assay on U251 CNS is above 25 µM; in the assay with UACC-62 melanoma, 16 µM.
In the case of `O=C1NC(=O)C(N2CCc3ccccc32)=C1c1ccc(Cl)cc1`, the GI50 with CCRF-CEM leukemia was above 25 µM; in the assay on OVCAR-8 ovarian it was above 25 µM; in the assay on RPMI-8226 leukemia, above 25 µM; in the assay with MALME-3M melanoma it was above 25 µM; in the assay on HT29 colon it was above 25 µM; in the assay on HOP-92 NSCLC, 6.38 µM. In addition, the GI50 in the assay with U251 CNS was above 25 µM; with UACC-62 melanoma, 24.8 µM. Also, the TGI in the assay on CCRF-CEM leukemia, in the assay on OVCAR-8 ovarian, in the assay on RPMI-8226 leukemia, with MALME-3M melanoma, with HT29 colon and in the assay with HOP-92 NSCLC was above 25 µM each time. The TGI in the assay with U251 CNS and with UACC-62 melanoma was above 25 µM throughout.
Regarding `O=C1c2ccccc2C(=O)c2c(NCCNCCO)ccc(NCCNCCO)c21`, the GI50 is 0.156 µM and 0.461 µM and 0.264 µM in the assay with CCRF-CEM leukemia; 0.349 µM and 0.718 µM and 0.821 µM with OVCAR-8 ovarian; 1.49 µM and 3.37 µM and 1.8 µM in the assay on RPMI-8226 leukemia; 1.6 µM and 1.18 µM and 1.21 µM in the assay on MALME-3M melanoma; 1.32 µM and 2.3 µM and 1.64 µM in the assay on HT29 colon; 0.289 µM and 0.508 µM and 0.227 µM in the assay with HOP-92 NSCLC. Further, the GI50 was 0.373 µM and 0.442 µM and 0.285 µM with U251 CNS; 1.03 µM and 1.2 µM and 1.06 µM in the assay with UACC-62 melanoma. The total growth inhibition concentration (TGI) in the assay on CCRF-CEM leukemia is 14.6 µM and 11.1 µM; with OVCAR-8 ovarian it was 6.5 µM and 6.81 µM and 6.08 µM; in the assay with RPMI-8226 leukemia, 12.2 µM and 33 µM and 10.9 µM; in the assay with MALME-3M melanoma, 4.97 µM and 6.88 µM and 3.85 µM; in the assay on HT29 colon it was 7.42 µM and 12.1 µM and 5.1 µM; in the assay on HOP-92 NSCLC, 4.94 µM and 5.08 µM and 2.08 µM. Further, the concentration for total growth inhibition (TGI) is 5.18 µM and 6.64 µM and 2.96 µM in the assay on U251 CNS; 4.25 µM and 4.33 µM and 2.97 µM in the assay with UACC-62 melanoma.

One may read the GI50 as the concentration at which growth is held to half of that of the control. Usually TGI stands for the concentration giving total growth inhibition. A low value points to more potent growth arrest.

The values above are taken from PubChem BioAssay (NCI).
